# Experimental data published in patent US9018200B2, “Substituted piperidinyl compounds useful as GPR119 agonists” (Merck Sharp & Dohme Corp., priority 2011, dated 2015).
# Target: T1, human GPR119 (Homo sapiens, UniProt Q8TDV5)
# T1 sequence (Q8TDV5 1-308 limits assumed): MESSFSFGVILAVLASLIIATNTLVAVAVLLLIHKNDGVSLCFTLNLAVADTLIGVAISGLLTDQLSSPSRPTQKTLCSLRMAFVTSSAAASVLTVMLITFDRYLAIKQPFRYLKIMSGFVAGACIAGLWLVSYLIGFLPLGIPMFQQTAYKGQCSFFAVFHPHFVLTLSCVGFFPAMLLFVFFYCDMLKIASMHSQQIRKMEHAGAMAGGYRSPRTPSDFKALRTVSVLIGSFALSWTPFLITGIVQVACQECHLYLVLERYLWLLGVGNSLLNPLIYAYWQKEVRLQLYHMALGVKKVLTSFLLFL
# Experiment: Measurement of GPR119 signaling (cAMP assay) in HEK 293 cells stably transfected with human GPR119
# Assay type: cell-based
# Conditions: not given
# Text: Measurement of GPR119 Signaling (Cyclic AMP (cAMP) Assay)
# Human embryonic kidney (HEK) 293 cell lines stably transfected with human GPR119 were maintained in Dulbecco's Modified Eagle Medium (DMEM) containing fetal bovine serum (FBS), penicillin-streptomycin, HEPES buffer (4-(2-hydroxyethyl)-1-piperazineethane sulfonic acid), and hygromycin. For the cAMP assay, the transfected cells were harvested using a non-enzymatic cell dissociation solution (GIBCO 2672), pelleted and resuspended in stimulation buffer (DMEM, 25 mM HEPES, 0.1% bovine serum albumin (BSA), pH 7.4 in the presence of 100 μM phosphodiesterase inhibitors). The adenylate cyclase assay was constructed following the LANCE™ cAMP Kit (Perkin Elmer, AD0264) instructions.
# Briefly, cells with Alexa Fluor® 647-anti cAMP antibody were incubated with 10 point series diluted test article in stimulation buffer with a final concentration of 2.5% DMSO for 45 minutes. The reaction was stopped by incubating with the supplied detection buffer containing the europium chelate of the Eu-SA/Biotin-cAMP tracer for 3 hours. The assay was performed in duplicate in a 384 well plate for duplicate plates and fluorescence was measured at 665 nm. Basal activity was determined using a DMSO control and maximum response was defined as cAMP stimulation produced by an internal agonist control. Standard cAMP concentrations were assayed concurrently for conversion of fluorescence signal to cAMP level. The data was analyzed using 4-parameter curve fit in Microsoft Excel. […]
row,Compound,EC50
1,"COC(=O)c1c(F)cc(OCC[C@@H]2C[C@@H]2C2CCN(CC(F)(F)F)CC2)cc1F [Example 1, Methyl 2,6-difluoro-4-(2-{(1S,2R)-2-[1-(2,2,2-trifluoroethyl)piperidin-4-yl]cyclopropyl}ethoxy)benzoate]",28.7 nM
2,"O=C(NC1CC1)c1c(F)cc(OCC[C@@H]2C[C@@H]2C2CCN(CC(F)(F)F)CC2)cc1F [Example 3, N-Cyclopropyl-2,6-difluoro-4-(2-{(1S,2R)-2-[1-(2,2,2-trifluoroethyl)piperidin-4-yl]cyclopropyl}ethoxy)benzamide]",5.28 nM
3,"CS(=O)(=O)c1ccc(OCC[C@@H]2C[C@@H]2C2CCN(CC(F)(F)F)CC2)cc1 [Example 4, 4-[(1R,2S)-2-{2-[4-(Methylsulfonyl)phenoxy]ethyl}cyclopropyl]-1-(2,2,2-trifluoroethyl)piperidine]",176 nM

# Same assay, conditions: table of Examples 5-56
row,EC50,Compound
1,2.34 nM,CC(C)(CO)NC(=O)c1ccc(OCC[C@@H]2C[C@@H]2C2CCN(CC(F)(F)C(F)(F)F)CC2)cc1F [Example 9]
2,3.16 nM,O=C(NC1CC1)c1ccc(OCC[C@@H]2C[C@@H]2C2CCN(CC(F)(F)C(F)F)CC2)cc1F [Example 11]
3,3.83 nM,CC(C)(C)NC(=O)c1ccc(OCC[C@@H]2C[C@@H]2C2CCN(CC(F)(F)C(F)(F)F)CC2)cc1F [Example 13]
4,4.35 nM,CS(=O)(=O)c1ccc(OCC[C@@H]2C[C@@H]2C2CCN(CC(F)(F)C(F)(F)F)CC2)cc1F [Example 14]
5,5.28 nM,O=C(NC1CC1)c1c(F)cc(OCC[C@@H]2C[C@@H]2C2CCN(CC(F)(F)F)CC2)cc1F [Example 15]
6,14 nM,CS(=O)(=O)c1ccc(OCC[C@@H]2C[C@@H]2C2CCN(CC(F)(F)C(F)(F)F)CC2)nc1 [Example 21]
7,20.3 nM,O=C(NC1CC(F)(F)C1)c1c(F)cc(OCC[C@@H]2C[C@@H]2C2CCN(CC(F)(F)F)CC2)cc1F [Example 24]
8,22.5 nM,CCC(F)(F)CN1CCC([C@H]2C[C@H]2CCOc2ccc(S(C)(=O)=O)c(F)c2)CC1 [Example 25]
9,35.3 nM,CCC(F)(F)CN1CCC([C@H]2C[C@H]2CCOc2cc(F)c(S(C)(=O)=O)c(F)c2)CC1 [Example 28]
10,257 nM,O=C(c1ccc(OCC[C@@H]2C[C@@H]2C2CCN(CC(F)(F)F)CC2)cc1F)N1CCC(O)C1 (some centres unmarked) [Example 38]
11,776 nM,CC(F)(F)CN1CCC([C@H]2C[C@H]2CCOc2ccc(S(C)(=O)=O)cn2)CC1 [Example 40]
12,7.13 nM,O=C1Cc2cc(OCC[C@@H]3C[C@@H]3C3CCN(CC(F)(F)C(F)(F)F)CC3)cc(F)c2N1 [Example 43]
13,24.2 nM,FC(F)(F)C(F)(F)CN1CCC([C@H]2C[C@H]2CCOc2ccc(-n3cnnn3)cc2)CC1 [Example 49]
14,57.9 nM,CC(C)(C)NC(=O)c1ccc(OCC[C@@H]2C[C@@H]2C2CCN(CC(F)(F)F)CC2)cc1F [Example 53]
15,13.4 nM,C=CCCC(=O)c1ccc(OCC[C@@H]2C[C@@H]2C2CCN(CC(F)(F)C(F)(F)F)CC2)cc1F [Example 56]

# Further lines, the molecule ahead of its results:
row,Compound,EC50
1,CCC(F)(F)CN1CCC([C@H]2C[C@H]2CCOc2cc(F)c(C(=O)NC3CC3)c(F)c2)CC1 [Example 5],0.43 nM
2,O=C(NC1CC1)c1ccc(OCC[C@@H]2C[C@@H]2C2CCN(CC(F)(F)C(F)(F)F)CC2)cc1F [Example 6],0.52 nM
3,CCC(F)(F)CN1CCC([C@H]2C[C@H]2CCOc2cc(F)c(C(=O)NC3(C)CC3)c(F)c2)CC1 [Example 7],1.2 nM
4,O=C(NCC1CCCO1)c1ccc(OCC[C@@H]2C[C@@H]2C2CCN(CC(F)(F)C(F)(F)F)CC2)cc1F (some centres unmarked) [Example 8],1.6 nM
5,O=C(NCC1(O)CC1)c1ccc(OCC[C@@H]2C[C@@H]2C2CCN(CC(F)(F)C(F)(F)F)CC2)cc1F [Example 10],3.02 nM
6,O=C(NCc1cnoc1)c1ccc(OCC[C@@H]2C[C@@H]2C2CCN(CC(F)(F)C(F)(F)F)CC2)cc1F [Example 12],3.69 nM
7,CCC(F)(F)CN1CCC([C@H]2C[C@H]2CCOc2ccc(C(=O)NC3CC3)c(F)c2)CC1 [Example 16],5.34 nM
8,O=C(NCCO)c1ccc(OCC[C@@H]2C[C@@H]2C2CCN(CC(F)(F)C(F)(F)F)CC2)cc1F [Example 17],5.38 nM
9,O=C(NC1CC1(F)F)c1c(F)cc(OCC[C@@H]2C[C@@H]2C2CCN(CC(F)(F)F)CC2)cc1F (some centres unmarked) [Example 18],5.87 nM
10,CC(C)(C)NC(=O)c1c(F)cc(OCC[C@@H]2C[C@@H]2C2CCN(CC(F)(F)F)CC2)cc1F [Example 19],12.2 nM
11,O=C(c1ccc(OCC[C@@H]2C[C@@H]2C2CCN(CC(F)(F)C(F)(F)F)CC2)cc1F)N1CCC(O)C1 (some centres unmarked) [Example 20],13.4 nM
12,O=C(NC1CC1)c1ccc(OCC[C@@H]2C[C@@H]2C2CCN(CC(F)(F)F)CC2)cc1F [Example 22],16.7 nM
13,CC(C)(O)C1CCCN(C(=O)c2ccc(OCC[C@@H]3C[C@@H]3C3CCN(CC(F)(F)C(F)(F)F)CC3)cc2F)C1 (some centres unmarked) [Example 23],18.4 nM
14,CS(=O)(=O)c1ccc(OCC[C@@H]2C[C@@H]2C2CCN(CC(F)(F)C(F)(F)F)CC2)cc1 [Example 26],23.6 nM
15,CS(=O)(=O)c1ccc(OCC[C@@H]2C[C@@H]2C2CCN(CC(F)(F)F)CC2)nc1 [Example 27],27.8 nM
16,O=C(c1c(F)cc(OCC[C@@H]2C[C@@H]2C2CCN(CC(F)(F)F)CC2)cc1F)N1CC(F)(F)C1 [Example 31],45.8 nM

row,Compound,EC50
1,COCCNC(=O)c1c(F)cc(OCC[C@@H]2C[C@@H]2C2CCN(CC(F)(F)F)CC2)cc1F [Example 33],68 nM
2,O=C(NC1CCOCC1)c1c(F)cc(OCC[C@@H]2C[C@@H]2C2CCN(CC(F)(F)F)CC2)cc1F [Example 34],77.3 nM
3,Cc1nc(C#N)cc(OCC[C@@H]2C[C@@H]2C2CCN(CC(F)(F)F)CC2)n1 [Example 35],126 nM
4,CS(=O)(=O)c1ccc(OCC[C@@H]2C[C@@H]2C2CCN(CC(F)(F)F)CC2)cc1 [Example 36],176 nM
5,Cc1cc(OCC[C@@H]2C[C@@H]2C2CCN(CC(F)(F)F)CC2)cc(C#N)n1 [Example 37],199 nM
6,O=C1Cc2cc(OCC[C@@H]3C[C@@H]3C3CCN(CC(F)(F)F)CC3)ccc2N1 [Example 39],270 nM
7,O=C(NC1CC1)c1ccc(OCC[C@@H]2C[C@@H]2C2CCN(CCC(F)(F)F)CC2)cc1F [Example 41],59.3 nM
8,CC(C)(CN1CCC([C@H]2C[C@H]2CCOc2ccc(C(=O)NC3CC3)c(F)c2)CC1)C(F)(F)F [Example 42],2.34 nM
9,CC(=O)c1ccc(OCC[C@@H]2C[C@@H]2C2CCN(CC(F)(F)C(F)(F)F)CC2)cc1F [Example 44],51.6 nM
10,CCC(F)(F)CN1CCC([C@H]2C[C@H]2CCOc2cc(F)c(C(=O)C3CC3)c(F)c2)CC1 [Example 45],1.65 nM
11,Cc1nnc(-c2ccc(OCC[C@@H]3C[C@@H]3C3CCN(CC(F)(F)C(F)(F)F)CC3)cc2F)o1 [Example 46],7.31 nM
12,FC(F)(F)C(F)(F)CN1CCC([C@H]2C[C@H]2CCOc2ccc(-n3cncn3)cc2)CC1 [Example 50],26.9 nM
13,COC(=O)c1c(F)cc(OCC[C@@H]2C[C@@H]2C2CCN(CC(F)(F)F)CC2)cc1F [Example 51],28.7 nM
14,Cc1nc(-c2ccc(OCC[C@@H]3C[C@@H]3C3CCN(CC(F)(F)C(F)(F)F)CC3)cc2)no1 [Example 52],40.8 nM
15,Cc1nnc(-c2ccc(OCC[C@@H]3C[C@@H]3C3CCN(CC(F)(F)F)CC3)cc2F)o1 [Example 54],59.5 nM
16,CS(=O)(=O)c1c(F)cc(COC[C@@H]2C[C@@H]2C2CCN(CC(F)(F)F)CC2)cc1F [Example 55],568 nM
